Laboratory results published in patent publication US20230257396A1, “MACROCYCLES AND THEIR USE” (BLOSSOMHILL THERAPEUTICS, INC., priority 2020, published 2023).

Tests used:
Assay in all cases: KINOMEscan kinase binding assay (Eurofins/DiscoveRx), % Ctrl
kinases [1] = target: T1, kinases (Homo sapiens, UniProt P00533, L858R/T790M)
T1 construct: purchased Eurofins/DiscoveRx; host or cells: E. coli BL21-derived host (T7 phage display) for most kinases; HEK-293 for the rest
Outline: (§1)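 Read-out is qPCR of kinase eluted from ligand-coated streptavidin beads after 1 h room-temperature competition with test compound. Values are % Ctrl at the tested concentration, lower meaning tighter binding.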

kinases [2] = target: T2, kinases (Homo sapiens, UniProt P35916)
T2 construct: purchased Eurofins/DiscoveRx; host or cells: E. coli BL21-derived host (T7 phage display) for most kinases; HEK-293 for the rest
Outline: as §1

kinases [3] = target: T3, kinases (Homo sapiens, UniProt P00519, F317L)
T3 construct: purchased Eurofins/DiscoveRx; host or cells: E. coli BL21-derived host (T7 phage display) for most kinases; HEK-293 for the rest
Outline: as §1

kinases [4] = target: T4, kinases (Homo sapiens, UniProt P00519)
T4 construct: purchased Eurofins/DiscoveRx; host or cells: E. coli BL21-derived host (T7 phage display) for most kinases; HEK-293 for the rest
Outline: as §1

kinases [5] = target: T5, kinases (Homo sapiens, UniProt P00533, DEL746-750)
T5 construct: purchased Eurofins/DiscoveRx; host or cells: E. coli BL21-derived host (T7 phage display) for most kinases; HEK-293 for the rest
Outline: as §1

kinases [6] = target: T6, kinases (Homo sapiens, UniProt P00519, Y253F)
T6 construct: purchased Eurofins/DiscoveRx; host or cells: E. coli BL21-derived host (T7 phage display) for most kinases; HEK-293 for the rest
Outline: as §1

kinases [7] = target: T7, kinases (Homo sapiens, UniProt P36888, N841I)
T7 construct: purchased Eurofins/DiscoveRx; host or cells: E. coli BL21-derived host (T7 phage display) for most kinases; HEK-293 for the rest
T7 sequence (P36888 27-993 N841I): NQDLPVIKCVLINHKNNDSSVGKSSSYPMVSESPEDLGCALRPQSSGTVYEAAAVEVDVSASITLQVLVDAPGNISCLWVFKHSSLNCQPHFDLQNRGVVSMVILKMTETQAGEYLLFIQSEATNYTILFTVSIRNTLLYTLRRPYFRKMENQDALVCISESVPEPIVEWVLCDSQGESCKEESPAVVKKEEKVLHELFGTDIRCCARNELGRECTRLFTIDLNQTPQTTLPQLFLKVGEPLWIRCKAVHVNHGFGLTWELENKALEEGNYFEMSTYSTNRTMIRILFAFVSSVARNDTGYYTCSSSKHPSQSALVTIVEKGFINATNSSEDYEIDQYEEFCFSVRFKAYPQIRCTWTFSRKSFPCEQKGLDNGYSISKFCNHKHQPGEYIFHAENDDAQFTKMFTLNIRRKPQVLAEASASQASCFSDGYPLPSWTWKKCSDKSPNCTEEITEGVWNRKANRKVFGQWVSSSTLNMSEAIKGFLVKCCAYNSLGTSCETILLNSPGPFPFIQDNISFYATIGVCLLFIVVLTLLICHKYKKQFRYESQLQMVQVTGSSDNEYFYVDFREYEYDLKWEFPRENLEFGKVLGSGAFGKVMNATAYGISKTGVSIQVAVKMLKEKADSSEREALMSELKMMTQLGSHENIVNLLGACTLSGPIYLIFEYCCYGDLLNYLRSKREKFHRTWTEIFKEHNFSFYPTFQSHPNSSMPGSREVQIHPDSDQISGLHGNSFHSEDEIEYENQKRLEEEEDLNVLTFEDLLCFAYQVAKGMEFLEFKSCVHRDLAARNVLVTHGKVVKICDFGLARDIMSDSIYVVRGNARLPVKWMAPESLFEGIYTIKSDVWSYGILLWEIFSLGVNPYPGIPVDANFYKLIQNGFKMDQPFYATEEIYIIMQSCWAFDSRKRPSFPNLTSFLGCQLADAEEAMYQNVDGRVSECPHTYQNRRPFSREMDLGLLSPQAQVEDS
Outline: as §1

kinases [8] = target: T8, kinases (Homo sapiens, UniProt P10721, D816H)
T8 construct: purchased Eurofins/DiscoveRx; host or cells: E. coli BL21-derived host (T7 phage display) for most kinases; HEK-293 for the rest
Outline: as §1

kinases [9] = target: T9, kinases (Homo sapiens, UniProt P00533, L858R)
T9 construct: purchased Eurofins/DiscoveRx; host or cells: E. coli BL21-derived host (T7 phage display) for most kinases; HEK-293 for the rest
Outline: as §1

kinases [10] = target: T10, kinases (Homo sapiens, UniProt P00533, DEL752-759)
T10 construct: purchased Eurofins/DiscoveRx; host or cells: E. coli BL21-derived host (T7 phage display) for most kinases; HEK-293 for the rest
Outline: as §1

[11] = target EGFR(L858R, T790M); 1 μM
[12] = target ABL1(F317L)-nonphosphorylated; 1 μM
[13] = target ABL1(F317L)-phosphorylated; 1 μM
[14] = target ABL1-nonphosphorylated; 1 μM
[15] = target ABL1-phosphorylated; 1 μM
[16] = target EGFR(E746-A750del); 1 μM
[17] = target ABL1(Y253F)-phosphorylated; 1 μM
[18] = target EGFR(S752-I759del); 1 μM
[19] = 1 μM; target EGFR(L858R, T790M)
[20] = 1 μM; target ABL1(F317L)-nonphosphorylated
[21] = 1 μM; target ABL1(F317L)-phosphorylated
[22] = 1 μM; target ABL1-nonphosphorylated
[23] = 1 μM; target ABL1-phosphorylated
[24] = 1 μM; target EGFR(E746-A750del)
[25] = 1 μM; target ABL1(Y253F)-phosphorylated
[26] = 1 μM; target EGFR(S752-I759del)

T2 sequence (P35916 25-1363): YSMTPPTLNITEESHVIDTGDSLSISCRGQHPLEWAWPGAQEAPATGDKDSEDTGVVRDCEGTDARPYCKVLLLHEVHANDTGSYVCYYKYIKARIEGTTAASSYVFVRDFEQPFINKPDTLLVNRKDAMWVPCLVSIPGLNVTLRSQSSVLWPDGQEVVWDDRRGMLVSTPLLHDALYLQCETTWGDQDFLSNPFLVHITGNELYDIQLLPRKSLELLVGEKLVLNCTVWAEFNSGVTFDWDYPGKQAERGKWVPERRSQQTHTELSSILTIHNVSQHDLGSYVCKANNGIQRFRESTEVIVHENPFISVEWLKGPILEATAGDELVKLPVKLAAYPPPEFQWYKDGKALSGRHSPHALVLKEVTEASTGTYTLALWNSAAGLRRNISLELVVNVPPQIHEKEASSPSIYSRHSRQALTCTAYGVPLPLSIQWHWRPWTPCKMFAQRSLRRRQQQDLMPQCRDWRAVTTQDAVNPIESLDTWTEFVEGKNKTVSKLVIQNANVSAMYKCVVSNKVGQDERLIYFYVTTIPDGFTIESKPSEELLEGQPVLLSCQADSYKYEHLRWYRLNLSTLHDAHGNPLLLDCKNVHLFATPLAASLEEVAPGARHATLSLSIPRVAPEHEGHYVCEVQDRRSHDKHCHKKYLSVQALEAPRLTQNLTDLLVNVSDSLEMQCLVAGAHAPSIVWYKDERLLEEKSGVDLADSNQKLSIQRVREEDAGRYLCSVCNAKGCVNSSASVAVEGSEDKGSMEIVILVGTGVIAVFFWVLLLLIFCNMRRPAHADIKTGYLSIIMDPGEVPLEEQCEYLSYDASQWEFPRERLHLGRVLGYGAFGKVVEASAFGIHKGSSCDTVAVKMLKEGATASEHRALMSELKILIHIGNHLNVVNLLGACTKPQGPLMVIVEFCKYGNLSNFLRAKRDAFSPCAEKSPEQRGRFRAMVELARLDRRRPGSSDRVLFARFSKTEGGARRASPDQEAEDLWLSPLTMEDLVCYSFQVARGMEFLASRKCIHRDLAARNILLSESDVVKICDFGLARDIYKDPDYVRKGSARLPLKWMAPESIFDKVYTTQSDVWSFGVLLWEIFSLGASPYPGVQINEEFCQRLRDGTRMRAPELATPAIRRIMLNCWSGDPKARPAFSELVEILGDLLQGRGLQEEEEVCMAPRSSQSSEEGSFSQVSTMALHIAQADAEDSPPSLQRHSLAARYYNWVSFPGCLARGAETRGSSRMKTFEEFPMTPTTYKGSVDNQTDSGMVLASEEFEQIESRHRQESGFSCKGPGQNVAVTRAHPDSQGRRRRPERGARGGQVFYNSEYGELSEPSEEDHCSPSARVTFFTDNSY
T8 sequence (P10721 26-976 D816H): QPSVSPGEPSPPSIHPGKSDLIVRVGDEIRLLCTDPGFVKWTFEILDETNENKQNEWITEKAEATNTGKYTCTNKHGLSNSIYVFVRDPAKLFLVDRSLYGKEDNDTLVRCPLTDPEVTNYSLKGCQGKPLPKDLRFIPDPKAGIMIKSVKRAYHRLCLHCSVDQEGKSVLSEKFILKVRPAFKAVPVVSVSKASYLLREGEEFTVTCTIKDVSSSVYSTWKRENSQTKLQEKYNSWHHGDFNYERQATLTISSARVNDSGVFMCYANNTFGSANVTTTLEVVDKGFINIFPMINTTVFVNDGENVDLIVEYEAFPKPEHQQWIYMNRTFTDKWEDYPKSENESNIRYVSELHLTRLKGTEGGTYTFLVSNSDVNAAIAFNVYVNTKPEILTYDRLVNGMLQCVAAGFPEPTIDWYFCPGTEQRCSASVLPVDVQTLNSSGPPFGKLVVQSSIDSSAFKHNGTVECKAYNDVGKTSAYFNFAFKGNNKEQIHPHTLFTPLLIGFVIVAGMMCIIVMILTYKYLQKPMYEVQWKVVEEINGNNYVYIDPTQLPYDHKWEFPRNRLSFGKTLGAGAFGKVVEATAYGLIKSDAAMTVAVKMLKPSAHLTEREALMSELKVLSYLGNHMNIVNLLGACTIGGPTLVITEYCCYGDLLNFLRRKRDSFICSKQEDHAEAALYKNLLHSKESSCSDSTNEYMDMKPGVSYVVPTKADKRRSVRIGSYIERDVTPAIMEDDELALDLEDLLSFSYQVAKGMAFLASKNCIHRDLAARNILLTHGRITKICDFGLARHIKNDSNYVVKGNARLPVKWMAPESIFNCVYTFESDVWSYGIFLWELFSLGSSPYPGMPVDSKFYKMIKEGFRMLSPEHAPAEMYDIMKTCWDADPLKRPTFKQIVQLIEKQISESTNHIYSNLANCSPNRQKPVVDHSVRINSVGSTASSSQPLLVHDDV

SMILES | % Ctrl, EGFR(L858R, T790M) (kinases [1]; [11]) | % Ctrl, FLT4 (kinases [2]; target FLT4; 1 μM) | % Ctrl, ABL1(F317L)-nonphosphorylated (kinases [3]; [12]) | % Ctrl, ABL1(F317L)-phosphorylated (kinases [3]; [13]) | % Ctrl, ABL1-nonphosphorylated (kinases [4]; [14]) | % Ctrl, ABL1-phosphorylated (kinases [4]; [15]) | % Ctrl, EGFR(E746-A750del) (kinases [5]; [16]) | % Ctrl, ABL1(Y253F)-phosphorylated (kinases [6]; [17]) | % Ctrl, FLT3(N841I) (kinases [7]; target FLT3(N841I); 1 μM) | % Ctrl, KIT(D816H) (kinases [8]; target KIT(D816H); 1 μM) | % Ctrl, EGFR(L858R) (kinases [9]; target EGFR(L858R); 1 μM) | % Ctrl, EGFR(S752-I759del) (kinases [10]; [18]) | % Ctrl, EGFR(L858R, T790M) (kinases [1]; [19]) | % Ctrl, FLT4 (kinases [2]; 1 μM; target FLT4) | % Ctrl, ABL1(F317L)-nonphosphorylated (kinases [3]; [20]) | % Ctrl, ABL1(F317L)-phosphorylated (kinases [3]; [21]) | % Ctrl, ABL1-nonphosphorylated (kinases [4]; [22]) | % Ctrl, ABL1-phosphorylated (kinases [4]; [23]) | % Ctrl, EGFR(E746-A750del) (kinases [5]; [24]) | % Ctrl, ABL1(Y253F)-phosphorylated (kinases [6]; [25]) | further results
Cc1cc2c([nH]1)/C=C1\C(=O)Nc3ccc(cc31)-c1c(noc1C)CNCCN(C)C2=O [Ex. 139, [3a(4)Z]-6,9,16-trimethyl-10,11,12,13-tetrahydro-2H-1,17-(ethanediylidene)[1,2]oxazolo[4,3-m]dipyrrolo[3,2-f:3′,4′-i][1,4]diazacyclopentadecine-3,8(5H,9H)-dione] | 17 % Ctrl | 23 % Ctrl | 48 % Ctrl | 39 % Ctrl | 17 % Ctrl | 9.8 % Ctrl | 72 % Ctrl | 11 % Ctrl | 12 % Ctrl | 67 % Ctrl | 80 % Ctrl | 74 % Ctrl |  |  |  |  |  |  |  |  | 
CN1CCOCCOc2cc3c(cc2Cl)NC(=O)/C3=C\c2[nH]ccc2C1=O [Ex. 143, [16a(17)Z]-19-chloro-2,5-dimethyl-6,7,9,10-tetrahydro-1H-12,14-(ethanediylidene)dipyrrolo[3,2-i:3′,4′-l][1,4,7]oxathiazacyclopentadecine-4,16(5H,15H)-dione] | 75 % Ctrl | 39 % Ctrl | 17 % Ctrl | 17 % Ctrl | 6 % Ctrl | 11 % Ctrl | 65 % Ctrl | 9.1 % Ctrl | 5.5 % Ctrl | 59 % Ctrl | 86 % Ctrl | 86 % Ctrl |  |  |  |  |  |  |  |  | 
Cc1cc2c([nH]1)/C=C1\C(=O)Nc3ccc(cc31)-c1c(C)nn(C)c1COCCN(C)C2=O [Ex. 146, [3a(4)Z]-6,9,14,16-tetramethyl-10,11,13,14-tetrahydro-2H-1,17-(ethanediylidene)pyrazolo[4,3-m]dipyrrolo[3,2-f:3′,4′-i][1,4]oxazacyclopentadecine-3,8(5H,9H)-dione] | 43 % Ctrl | 78 % Ctrl | 89 % Ctrl | 89 % Ctrl | 64 % Ctrl | 100 % Ctrl | 73 % Ctrl | 89 % Ctrl | 0 % Ctrl | 100 % Ctrl | 88 % Ctrl | 83 % Ctrl |  |  |  |  |  |  |  |  | 
Cc1nn(C)c2c1-c1ccc3c(c1)/C(=C/c1[nH]ccc1C(=O)N(C)CCCO2)C(=O)N3 [Ex. 150, [3a(4)Z]-9,14,16-trimethyl-10,11,13,14-tetrahydro-2H-1,17-(ethanediylidene)pyrazolo[4,3-m]dipyrrolo[3,2-f:3′,4′-i][1,4]oxazacyclopentadecine-3,8(5H,9H)-dione] | 83 % Ctrl | 95 % Ctrl | 87 % Ctrl | 82 % Ctrl | 82 % Ctrl | 82 % Ctrl | 98 % Ctrl | 100 % Ctrl | 19 % Ctrl | 87 % Ctrl | 77 % Ctrl | 100 % Ctrl |  |  |  |  |  |  |  |  | 
CN1CCSCCOc2cc3c(cc2Cl)NC(=O)/C3=C\c2[nH]ccc2C1=O [Ex. 153] | 79 % Ctrl | 11 % Ctrl | 4.3 % Ctrl | 18 % Ctrl | 1.3 % Ctrl | 18 % Ctrl | 56 % Ctrl | 13 % Ctrl | 0 % Ctrl | 27 % Ctrl | 86 % Ctrl | 100 % Ctrl |  |  |  |  |  |  |  |  | 
Cc1cc2c([nH]1)/C=C1\C(=O)Nc3ccc(cc31)-c1c(noc1C(C)C)COCCN(C)C2=O [Ex. 161, [3a(4)Z]-9-methyl-16-(propan-2-yl)-10,11-dihydro-2H,13H-1,17-(ethanediylidene)[1,2]oxazolo[4,3-m]dipyrrolo[3,2-f:3′,4′-i][1,4]oxazacyclopentadecine-3,8(5H,9H)-dione] |  |  |  |  |  |  |  |  |  |  |  |  | 96 % Ctrl | 79 % Ctrl | 93 % Ctrl | 94 % Ctrl | 100 % Ctrl | 97 % Ctrl | 87 % Ctrl | 78 % Ctrl | % Ctrl, FLT3(N841I) (kinases [7]; 1 μM; target FLT3(N841I)): 39 % Ctrl; % Ctrl, KIT(D816H) (kinases [8]; 1 μM; target KIT(D816H)): 100 % Ctrl; % Ctrl, EGFR(L858R) (kinases [9]; 1 μM; target EGFR(L858R)): 100 % Ctrl; % Ctrl, EGFR(S752-I759del) (kinases [10]; [26]): 81 % Ctrl
CN1CCOc2cc3c(cc2Cl)NC(=O)/C3=C\c2[nH]ccc2C(=O)N(C)CC1 [Ex. 164, [16a(17)Z]-19-chloro-2,5,8-trimethyl-5,6,7,8,9,10-hexahydro-12,14-(ethanediylidene)dipyrrolo[3,2-i:3′,4′-l][1,4,7]oxadiazacyclopentadecine-4,16(1H,15H)-dione] |  |  |  |  |  |  |  |  |  |  |  |  | 80 % Ctrl | 0.2 % Ctrl | 1.6 % Ctrl | 1.3 % Ctrl | 0.1 % Ctrl | 0.1 % Ctrl | 18 % Ctrl | 0.1 % Ctrl | % Ctrl, FLT3(N841I) (kinases [7]; 1 μM; target FLT3(N841I)): 0 % Ctrl; % Ctrl, KIT(D816H) (kinases [8]; 1 μM; target KIT(D816H)): 22 % Ctrl; % Ctrl, EGFR(L858R) (kinases [9]; 1 μM; target EGFR(L858R)): 45 % Ctrl; % Ctrl, EGFR(S752-I759del) (kinases [10]; [26]): 55 % Ctrl
Cc1cc2c([nH]1)/C=C1\C(=O)Nc3ccc(cc31)-c1cnn(C)c1OCCCN(C)C2=O [Ex. 166, [3a(4)Z]-9,14-dimethyl-9,10,11,12-tetrahydro-14H-1,17-(ethanediylidene)pyrazolo[4,3-n]dipyrrolo[3,2-g:3′,4′-j][1,5]oxazacyclopentadecine-3,8(2H,5H)-dione] |  |  |  |  |  |  |  |  |  |  |  |  | 8.1 % Ctrl | 49 % Ctrl | 41 % Ctrl | 8.7 % Ctrl | 4.1 % Ctrl | 3.6 % Ctrl | 84 % Ctrl | 11 % Ctrl | % Ctrl, FLT3(N841I) (kinases [7]; 1 μM; target FLT3(N841I)): 0 % Ctrl; % Ctrl, KIT(D816H) (kinases [8]; 1 μM; target KIT(D816H)): 10 % Ctrl; % Ctrl, EGFR(L858R) (kinases [9]; 1 μM; target EGFR(L858R)): 85 % Ctrl; % Ctrl, EGFR(S752-I759del) (kinases [10]; [26]): 93 % Ctrl
